What was measured:
Assay in all cases: cells
NCI-H510A = type: functional, cell-based, Homo sapiens; details: Homo sapiens, NCI-H510A;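 also: growth inhibition of NCI-H510A cells, read out with a cell viability assay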
Description: SANGER: Inhibition of human NCI-H510A cell growth in a cell viability assay.

CAL-27 = type: functional, cell-based; details: Homo sapiens;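 also: Viability-based readout, IC50 reflecting inhibition of CAL-27 cell growth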
Description: SANGER: Inhibition of human CAL-27 cell growth in a cell viability assay.

MKN-7 = type: functional, cell-based; details: Homo sapiens;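 also: growth inhibition of MKN-7 cells, read out with a cell viability assay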
Description: SANGER: Inhibition of human MKN7 cell growth in a cell viability assay.

LCLC-103H cell line = type: functional, cell-based; details: Homo sapiens
Description: SANGER: Inhibition of human LCLC-103H cell growth in a cell viability assay.

SW13 = type: functional, cell-based; details: Homo sapiens;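 also: IC50 is inhibition of SW13 cell growth, read out with a cell viability assay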
Description: SANGER: Inhibition of human SW13 cell growth in a cell viability assay.

UO-31 = type: functional, cell-based; details: Homo sapiens;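 also: cell viability assay measuring inhibition of cell growth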
Description: SANGER: Inhibition of human U031 cell growth in a cell viability assay.

OVCAR-8 = type: functional, cell-based; details: Homo sapiens;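 also: growth inhibition of human OVCAR-8 cells, read out by a cell viability assay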
Description: SANGER: Inhibition of human OVCAR-8 cell growth in a cell viability assay.

RVH-421 = type: functional, cell-based; details: Homo sapiens
Description: SANGER: Inhibition of human RVH-421 cell growth in a cell viability assay.

ESS-1 = type: functional, cell-based; details: Homo sapiens;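 also: growth inhibition of human ESS-1 cells, read out by a cell viability assay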
Description: SANGER: Inhibition of human ESS-1 cell growth in a cell viability assay.

SW1463 = type: functional, cell-based; details: Homo sapiens;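 also: growth inhibition of SW1463 cells, determined with a cell viability assay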
Description: SANGER: Inhibition of human SW1463 cell growth in a cell viability assay.

Calu-3 = type: functional, cell-based; details: Homo sapiens;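 also: growth inhibition of human Calu-3 cells, determined with a cell viability assay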
Description: SANGER: Inhibition of human Calu-3 cell growth in a cell viability assay.

T47D = type: functional, cell-based; details: Homo sapiens;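 also: growth inhibition of human T47D cells, measured with a cell viability assay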
Description: SANGER: Inhibition of human T47D cell growth in a cell viability assay.

SAOS-2 = type: functional, cell-based; details: Homo sapiens;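 also: growth inhibition of human Saos-2 cells determined by a cell viability assay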
Description: SANGER: Inhibition of human Saos-2 cell growth in a cell viability assay.

SW1417 = type: functional, cell-based; details: Homo sapiens;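 also: growth inhibition of human SW1417 cells, read out with a cell viability assay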
Description: SANGER: Inhibition of human SW1417 cell growth in a cell viability assay.

HT1197 = type: functional, cell-based, HT-1197; details: Homo sapiens
Description: SANGER: Inhibition of human HT-1197 cell growth in a cell viability assay.

BCPAP = type: functional, cell-based; details: Homo sapiens;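 also: growth inhibition of BCPAP cells, read out in a cell viability assay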
Description: SANGER: Inhibition of human BCPAP cell growth in a cell viability assay.

BEN = type: functional, cell-based; details: Homo sapiens;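 also: growth inhibition of the BEN cell line, read out with a cell viability assay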
Description: SANGER: Inhibition of human BEN cell growth in a cell viability assay.

SW756 = type: functional, cell-based; details: Homo sapiens;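 also: growth inhibition of human SW756 cells, read out with a cell viability assay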
Description: SANGER: Inhibition of human SW756 cell growth in a cell viability assay.

RPMI-7951 = type: functional, cell-based; details: Homo sapiens
Description: SANGER: Inhibition of human RPMI-7951 cell growth in a cell viability assay.

HN = type: functional, cell-based; details: Homo sapiens
Description: SANGER: Inhibition of human HN cell growth in a cell viability assay.

SW837 = type: functional, cell-based; details: Homo sapiens;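 also: growth inhibition of SW837 cells, determined with a cell viability assay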
Description: SANGER: Inhibition of human SW837 cell growth in a cell viability assay.

8305C = type: functional, cell-based; details: Homo sapiens
Description: SANGER: Inhibition of human 8305C cell growth in a cell viability assay.

NB17 = type: functional, cell-based, Homo sapiens; details: Homo sapiens, NB17;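 also: growth inhibition of NB17 cells, read out with a cell viability assay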
Description: SANGER: Inhibition of human NB17 cell growth in a cell viability assay.

MKN-45 = type: functional, cell-based; details: Homo sapiens;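 also: growth inhibition of human MKN-45 cells, measured with a cell viability assay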
Description: SANGER: Inhibition of human MKN45 cell growth in a cell viability assay.

NCI-H661 = type: functional, cell-based; details: Homo sapiens;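 also: cell viability assay read-out, IC50 being the concentration that inhibits growth of the cells by half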
Description: SANGER: Inhibition of human NCI-H661 cell growth in a cell viability assay.

Daoy = type: functional, cell-based; details: Homo sapiens;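 also: daoy cell growth inhibition, read out as cell viability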
Description: SANGER: Inhibition of human Daoy cell growth in a cell viability assay.

HuP-T3 = type: functional, cell-based; details: Homo sapiens;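 also: HuP-T3 cell growth inhibition, read out with a cell viability assay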
Description: SANGER: Inhibition of human HuP-T3 cell growth in a cell viability assay.

A673 = type: functional, cell-based; details: Homo sapiens;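 also: growth inhibition of human A673 cells, read out through a cell viability assay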
Description: SANGER: Inhibition of human A673 cell growth in a cell viability assay.

NCI-H2052 = type: functional, cell-based; details: Homo sapiens;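 also: growth inhibition of NCI-H2052 cells, read out with a cell viability assay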
Description: SANGER: Inhibition of human NCI-H2052 cell growth in a cell viability assay.

ChaGo-K-1 = type: functional, cell-based; details: Homo sapiens;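 also: growth inhibition of ChaGo-K-1 cells, read out with a cell viability assay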
Description: SANGER: Inhibition of human ChaGo-K-1 cell growth in a cell viability assay.

MEL-JUSO = type: functional, cell-based; details: Homo sapiens;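 also: growth inhibition of human MEL-JUSO cells, read out with a cell viability assay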
Description: SANGER: Inhibition of human MEL-JUSO cell growth in a cell viability assay.

KOSC-2 = type: functional, cell-based; details: Homo sapiens;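 also: growth inhibition of KOSC-2 cells, read out by a cell viability assay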
Description: SANGER: Inhibition of human KOSC-2 cell growth in a cell viability assay.

KYSE-270 = type: functional, cell-based; details: Homo sapiens;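 also: cell growth inhibition measured with a viability assay in the human KYSE-270 line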
Description: SANGER: Inhibition of human KYSE-270 cell growth in a cell viability assay.

EW-22 = type: functional, cell-based; details: Homo sapiens;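 also: growth inhibition of the EW-22 cell line, measured with a cell viability readout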
Description: SANGER: Inhibition of human EW-22 cell growth in a cell viability assay.

D-542MG = type: functional, cell-based; details: Homo sapiens
Description: SANGER: Inhibition of human D-542MG cell growth in a cell viability assay.

M14 = type: functional, cell-based; details: Homo sapiens;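 also: growth inhibition of M14 cells, read out with a cell viability assay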
Description: SANGER: Inhibition of human M14 cell growth in a cell viability assay.

CWR22R = type: functional, cell-based; details: Homo sapiens, 22Rv1;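 also: growth inhibition of 22Rv1 cells, read out with a cell viability assay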
Description: SANGER: Inhibition of human 22RV1 cell growth in a cell viability assay.

MeWo = type: functional, cell-based; details: Homo sapiens;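 also: growth inhibition of MeWo cells, determined by a cell viability readout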
Description: SANGER: Inhibition of human Mewo cell growth in a cell viability assay.

NCI-H358 = type: functional, cell-based; details: Homo sapiens;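 also: growth inhibition of NCI-H358 human cells, read out with a cell viability assay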
Description: SANGER: Inhibition of human NCI-H358 cell growth in a cell viability assay.

LN-405 = type: functional, cell-based; details: Homo sapiens
Description: SANGER: Inhibition of human LN-405 cell growth in a cell viability assay.

JEG-3 = type: functional, cell-based; details: Homo sapiens;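 also: growth inhibition of human JEG-3 cells, read out with a cell viability assay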
Description: SANGER: Inhibition of human JEG-3 cell growth in a cell viability assay.

SN12C = type: functional, cell-based; details: Homo sapiens;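 also: growth inhibition of human SN12C cells, measured by a cell viability assay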
Description: SANGER: Inhibition of human SN12C cell growth in a cell viability assay.

NCI-H630 = type: functional, cell-based; details: Homo sapiens;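 also: growth inhibition of NCI-H630 cells, read out with a cell viability assay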
Description: SANGER: Inhibition of human NCI-H630 cell growth in a cell viability assay.

ASPC1 = type: functional, cell-based; details: Homo sapiens;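 also: growth inhibition of AsPC-1 cells, read out with a cell viability assay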
Description: SANGER: Inhibition of human AsPC-1 cell growth in a cell viability assay.

SK-HEP1 = type: functional, cell-based, SK-HEP-1; details: Homo sapiens;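 also: cell viability readout used to quantify reduction in proliferation of human SK-HEP-1 cells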
Description: SANGER: Inhibition of human SK-HEP-1 cell growth in a cell viability assay.

PANC-08-13 = type: functional, cell-based; details: Homo sapiens;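 also: cell growth inhibition, measured with a cell viability assay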
Description: SANGER: Inhibition of human PANC-08-13 cell growth in a cell viability assay.

**Q.** For `CC1=C(/C=C/C(C)=C/C=C/C(C)=C/C(=O)O)C(C)(C)CCC1` [TRETINOIN], which IC50 (NCI-H510A) is on record?
**A.** The IC50 was > 10 µM.

**Q.** What about the IC50 (CAL-27) of the same compound?
**A.** Its IC50 is > 10 µM.

**Q.** And the IC50 (MKN-7)?
**A.** Its IC50 is > 10 µM.

**Q.** And the IC50 (LCLC-103H cell line)?
**A.** Its IC50 is > 10 µM.

**Q.** What about the IC50 (SW13) of the same compound?
**A.** The IC50 was > 10 µM.

**Q.** And the IC50 (UO-31)?
**A.** Its IC50 is > 10 µM.

**Q.** And the IC50 (OVCAR-8)?
**A.** The IC50 was > 10 µM.

**Q.** What about the IC50 (RVH-421) of the same compound?
**A.** The IC50 was > 10 µM.

**Q.** And the IC50 (ESS-1)?
**A.** The IC50 was > 10 µM.

**Q.** And the IC50 (SW1463)?
**A.** The IC50 was > 10 µM.

**Q.** And the IC50 (Calu-3)?
**A.** Its IC50 is > 10 µM.

**Q.** And the IC50 (T47D)?
**A.** Its IC50 is > 10 µM.

**Q.** And the IC50 (SAOS-2)?
**A.** The IC50 was > 10 µM.

**Q.** And the IC50 (SW1417)?
**A.** The IC50 was > 10 µM.

**Q.** And the IC50 (HT1197)?
**A.** The IC50 was > 10 µM.

**Q.** And the IC50 (BCPAP)?
**A.** Its IC50 is > 10 µM.

**Q.** And the IC50 (BEN)?
**A.** Its IC50 is > 10 µM.

**Q.** What about the IC50 (SW756) of the same compound?
**A.** The IC50 was > 10 µM.

**Q.** What about the IC50 (RPMI-7951) of the same compound?
**A.** The IC50 was > 10 µM.

**Q.** What about the IC50 (HN) of the same compound?
**A.** Its IC50 is > 10 µM.

**Q.** What about the IC50 (SW837) of the same compound?
**A.** The IC50 was > 10 µM.

**Q.** What about the IC50 (8305C) of the same compound?
**A.** The IC50 was > 10 µM.

**Q.** What about the IC50 (NB17) of the same compound?
**A.** Its IC50 is > 10 µM.

**Q.** And the IC50 (MKN-45)?
**A.** Its IC50 is > 10 µM.

**Q.** What about the IC50 (NCI-H661) of the same compound?
**A.** Its IC50 is > 10 µM.

**Q.** What about the IC50 (Daoy) of the same compound?
**A.** Its IC50 is > 10 µM.

**Q.** What about the IC50 (HuP-T3) of the same compound?
**A.** Its IC50 is > 10 µM.

**Q.** What about the IC50 (A673) of the same compound?
**A.** The IC50 was > 10 µM.

**Q.** And the IC50 (NCI-H2052)?
**A.** Its IC50 is > 10 µM.

**Q.** What about the IC50 (ChaGo-K-1) of the same compound?
**A.** The IC50 was > 10 µM.

**Q.** What about the IC50 (MEL-JUSO) of the same compound?
**A.** The IC50 was > 10 µM.

**Q.** What about the IC50 (KOSC-2) of the same compound?
**A.** Its IC50 is > 10 µM.

**Q.** What about the IC50 (KYSE-270) of the same compound?
**A.** The IC50 was > 10 µM.

**Q.** And the IC50 (EW-22)?
**A.** Its IC50 is > 10 µM.

**Q.** And the IC50 (D-542MG)?
**A.** The IC50 was > 10 µM.

**Q.** And the IC50 (M14)?
**A.** Its IC50 is > 10 µM.

**Q.** And the IC50 (CWR22R)?
**A.** The IC50 was > 10 µM.

**Q.** What about the IC50 (MeWo) of the same compound?
**A.** The IC50 was > 10 µM.

**Q.** And the IC50 (NCI-H358)?
**A.** The IC50 was > 10 µM.

**Q.** What about the IC50 (LN-405) of the same compound?
**A.** The IC50 was > 10 µM.

**Q.** And the IC50 (JEG-3)?
**A.** The IC50 was > 10 µM.

**Q.** And the IC50 (SN12C)?
**A.** The IC50 was > 10 µM.

**Q.** And the IC50 (NCI-H630)?
**A.** The IC50 was > 10 µM.

**Q.** What about the IC50 (ASPC1) of the same compound?
**A.** Its IC50 is > 10 µM.

**Q.** What about the IC50 (SK-HEP1) of the same compound?
**A.** Its IC50 is > 10 µM.

**Q.** What about the IC50 (PANC-08-13) of the same compound?
**A.** The IC50 was > 10 µM.

**Q.** What does the source list for `NC(=O)Nc1cc(-c2cccc(F)c2)sc1C(=O)N[C@H]1CCCNC1` [AZD-7762]?
**A.** IC50 (NCI-H510A): 0.246 µM; IC50 (CAL-27): > 2 µM; IC50 (MKN-7): 1.21 µM; IC50 (LCLC-103H cell line): 0.98 µM; IC50 (SW13): > 2 µM; IC50 (UO-31): 0.482 µM; IC50 (OVCAR-8): 0.356 µM; IC50 (RVH-421): 1.19 µM; IC50 (ESS-1): 0.164 µM; IC50 (SW1463): > 2 µM; IC50 (Calu-3): > 2 µM; IC50 (T47D): > 2 µM; IC50 (SAOS-2): 0.746 µM; IC50 (SW1417): 0.736 µM; IC50 (HT1197): > 2 µM; IC50 (BCPAP): 1.89 µM; IC50 (BEN): > 2 µM; IC50 (SW756): 0.0358 µM; IC50 (RPMI-7951): 0.231 µM; IC50 (HN): 0.846 µM; IC50 (SW837): > 2 µM; IC50 (8305C): 0.789 µM; IC50 (NB17): 0.158 µM; IC50 (MKN-45): 0.28 µM; IC50 (NCI-H661): 0.637 µM; IC50 (Daoy): 0.451 µM; IC50 (HuP-T3): 0.0871 µM; IC50 (A673): 0.865 µM; IC50 (NCI-H2052): > 2 µM; IC50 (ChaGo-K-1): 0.325 µM; IC50 (MEL-JUSO): 0.131 µM; IC50 (KOSC-2): 0.247 µM; IC50 (KYSE-270): 0.226 µM; IC50 (EW-22): 0.584 µM; IC50 (D-542MG): > 2 µM; IC50 (M14): 0.145 µM; IC50 (CWR22R): 1.81 µM; IC50 (MeWo): 0.304 µM; IC50 (NCI-H358): 1.43 µM; IC50 (LN-405): 0.877 µM; IC50 (JEG-3): > 2 µM; IC50 (SN12C): 1.12 µM; IC50 (NCI-H630): 1.79 µM; IC50 (ASPC1): 0.664 µM; IC50 (SK-HEP1): > 2 µM; IC50 (PANC-08-13): 0.661 µM

Reference: ChEMBL document CHEMBL1201861, “Genomics of Drug Sensitity in Cancer screening data, Wellcome Trust Sanger Institute”
